Measured values taken from ChEMBL document CHEMBL5316320, “Discovery of Novel Indazole Chemotypes as Isoform-Selective JNK3 Inhibitors for the Treatment of Parkinson's Disease” (J Med Chem, 2023).

Key:
[1] = target: T1, Mitogen-activated protein kinase 8 (Homo sapiens, UniProt P45983)
[2] = target: Mitogen-activated protein kinase 9 (Homo sapiens, UniProt P45984); experiment: Inhibition of JNK2 (unknown origin) by kinase profiling assay
[3] = target: T2, Dual specificity mitogen-activated protein kinase kinase 4 (Homo sapiens, UniProt P45985); experiment: Inhibition of MKK4 (unknown origin) by kinase profiling assay
T2 sequence (P45985 whole entry): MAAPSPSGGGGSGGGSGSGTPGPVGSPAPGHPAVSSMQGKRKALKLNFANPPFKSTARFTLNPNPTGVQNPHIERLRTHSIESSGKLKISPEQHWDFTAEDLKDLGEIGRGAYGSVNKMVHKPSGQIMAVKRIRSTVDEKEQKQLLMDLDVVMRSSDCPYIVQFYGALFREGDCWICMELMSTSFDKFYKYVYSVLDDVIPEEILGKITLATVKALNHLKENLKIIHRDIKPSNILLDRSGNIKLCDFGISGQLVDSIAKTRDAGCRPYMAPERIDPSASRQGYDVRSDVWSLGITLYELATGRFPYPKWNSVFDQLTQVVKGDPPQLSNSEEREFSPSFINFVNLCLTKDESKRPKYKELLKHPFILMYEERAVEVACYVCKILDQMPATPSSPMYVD

[4] = target: T3, Serine/threonine-protein kinase D3 (Homo sapiens, UniProt O94806); experiment: Inhibition of PKD3 (unknown origin) by kinase profiling assay
T3 sequence (O94806 whole entry): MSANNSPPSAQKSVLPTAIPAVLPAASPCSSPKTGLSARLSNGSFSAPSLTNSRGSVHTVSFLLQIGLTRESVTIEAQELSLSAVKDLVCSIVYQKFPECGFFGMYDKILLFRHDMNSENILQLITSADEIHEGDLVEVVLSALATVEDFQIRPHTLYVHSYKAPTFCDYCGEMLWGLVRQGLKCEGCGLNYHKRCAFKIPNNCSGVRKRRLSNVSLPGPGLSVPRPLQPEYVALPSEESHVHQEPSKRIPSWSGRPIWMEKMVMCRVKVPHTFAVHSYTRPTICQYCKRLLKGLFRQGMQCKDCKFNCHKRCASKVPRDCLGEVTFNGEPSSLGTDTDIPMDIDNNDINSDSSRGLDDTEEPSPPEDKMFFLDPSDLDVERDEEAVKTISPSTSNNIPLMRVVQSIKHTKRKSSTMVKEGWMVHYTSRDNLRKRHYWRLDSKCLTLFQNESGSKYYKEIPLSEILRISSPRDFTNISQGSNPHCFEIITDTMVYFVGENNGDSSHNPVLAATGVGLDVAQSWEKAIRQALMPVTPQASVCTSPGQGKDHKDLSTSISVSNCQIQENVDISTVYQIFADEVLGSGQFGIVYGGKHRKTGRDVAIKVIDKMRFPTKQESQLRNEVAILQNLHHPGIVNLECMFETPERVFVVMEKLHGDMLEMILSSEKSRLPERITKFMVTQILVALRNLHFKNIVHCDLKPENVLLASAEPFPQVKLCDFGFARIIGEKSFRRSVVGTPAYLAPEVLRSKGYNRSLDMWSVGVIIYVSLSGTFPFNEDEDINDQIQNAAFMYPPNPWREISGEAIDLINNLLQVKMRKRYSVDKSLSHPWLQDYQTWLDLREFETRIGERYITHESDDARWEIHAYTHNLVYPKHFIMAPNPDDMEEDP

[5] = target: T4, Dual specificity mitogen-activated protein kinase kinase 7 (Homo sapiens, UniProt O14733); experiment: Inhibition of MKK7 (unknown origin) by kinase profiling assay
T4 sequence (O14733 whole entry): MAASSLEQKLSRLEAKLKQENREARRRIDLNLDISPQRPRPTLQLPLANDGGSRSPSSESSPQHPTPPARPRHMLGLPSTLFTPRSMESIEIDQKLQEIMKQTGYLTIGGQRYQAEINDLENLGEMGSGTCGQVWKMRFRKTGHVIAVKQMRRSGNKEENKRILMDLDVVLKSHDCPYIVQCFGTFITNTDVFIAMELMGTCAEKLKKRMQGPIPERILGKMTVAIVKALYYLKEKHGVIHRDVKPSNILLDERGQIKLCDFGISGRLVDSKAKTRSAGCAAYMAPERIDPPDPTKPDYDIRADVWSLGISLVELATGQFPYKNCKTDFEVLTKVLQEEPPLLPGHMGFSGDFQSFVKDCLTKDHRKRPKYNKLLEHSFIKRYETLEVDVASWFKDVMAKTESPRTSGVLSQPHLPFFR

[6] = target: Vascular endothelial growth factor receptor 3 (Homo sapiens, UniProt P35916); experiment: Inhibition of FLT4 (unknown origin) by kinase profiling assay
Sequence of Vascular endothelial growth factor receptor 3 (P35916 whole entry): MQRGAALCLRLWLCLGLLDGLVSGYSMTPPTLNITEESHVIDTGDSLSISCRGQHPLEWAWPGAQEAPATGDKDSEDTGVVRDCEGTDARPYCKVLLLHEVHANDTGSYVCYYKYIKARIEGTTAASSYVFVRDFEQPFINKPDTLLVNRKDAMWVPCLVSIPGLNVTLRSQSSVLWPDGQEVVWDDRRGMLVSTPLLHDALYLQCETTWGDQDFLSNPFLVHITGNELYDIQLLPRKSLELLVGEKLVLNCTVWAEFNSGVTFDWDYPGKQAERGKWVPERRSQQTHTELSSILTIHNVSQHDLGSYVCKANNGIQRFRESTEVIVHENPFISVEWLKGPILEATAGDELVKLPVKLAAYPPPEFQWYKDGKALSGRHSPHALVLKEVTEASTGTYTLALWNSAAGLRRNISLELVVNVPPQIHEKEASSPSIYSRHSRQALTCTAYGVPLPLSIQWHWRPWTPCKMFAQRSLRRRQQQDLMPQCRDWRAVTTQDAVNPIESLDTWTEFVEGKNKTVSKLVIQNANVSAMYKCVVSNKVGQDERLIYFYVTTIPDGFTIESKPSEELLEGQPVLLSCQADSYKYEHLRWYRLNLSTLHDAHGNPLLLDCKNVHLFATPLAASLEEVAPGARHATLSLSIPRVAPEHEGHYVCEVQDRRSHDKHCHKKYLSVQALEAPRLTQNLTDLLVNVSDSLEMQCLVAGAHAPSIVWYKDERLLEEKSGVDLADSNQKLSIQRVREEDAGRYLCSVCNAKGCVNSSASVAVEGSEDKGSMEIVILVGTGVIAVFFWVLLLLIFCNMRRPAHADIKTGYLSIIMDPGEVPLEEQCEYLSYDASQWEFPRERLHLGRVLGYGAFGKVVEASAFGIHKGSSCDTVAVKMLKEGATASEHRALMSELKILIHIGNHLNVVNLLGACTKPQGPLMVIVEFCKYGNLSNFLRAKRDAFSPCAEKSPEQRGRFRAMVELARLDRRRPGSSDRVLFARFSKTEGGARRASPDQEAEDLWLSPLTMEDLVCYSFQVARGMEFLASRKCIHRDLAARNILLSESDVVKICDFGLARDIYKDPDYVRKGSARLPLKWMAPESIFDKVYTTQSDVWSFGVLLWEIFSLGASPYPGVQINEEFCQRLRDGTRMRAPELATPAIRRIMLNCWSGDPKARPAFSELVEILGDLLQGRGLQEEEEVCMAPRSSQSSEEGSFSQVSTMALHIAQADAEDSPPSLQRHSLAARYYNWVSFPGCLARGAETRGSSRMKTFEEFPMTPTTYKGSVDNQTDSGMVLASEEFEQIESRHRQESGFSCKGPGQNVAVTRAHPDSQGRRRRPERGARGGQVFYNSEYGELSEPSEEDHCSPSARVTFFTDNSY

[7] = target: Cyclin-dependent kinase-like 3 (Homo sapiens, UniProt Q8IVW4); experiment: Inhibition of CDKL3 (unknown origin) by kinase profiling assay
Sequence of Cyclin-dependent kinase-like 3 (Q8IVW4 whole entry): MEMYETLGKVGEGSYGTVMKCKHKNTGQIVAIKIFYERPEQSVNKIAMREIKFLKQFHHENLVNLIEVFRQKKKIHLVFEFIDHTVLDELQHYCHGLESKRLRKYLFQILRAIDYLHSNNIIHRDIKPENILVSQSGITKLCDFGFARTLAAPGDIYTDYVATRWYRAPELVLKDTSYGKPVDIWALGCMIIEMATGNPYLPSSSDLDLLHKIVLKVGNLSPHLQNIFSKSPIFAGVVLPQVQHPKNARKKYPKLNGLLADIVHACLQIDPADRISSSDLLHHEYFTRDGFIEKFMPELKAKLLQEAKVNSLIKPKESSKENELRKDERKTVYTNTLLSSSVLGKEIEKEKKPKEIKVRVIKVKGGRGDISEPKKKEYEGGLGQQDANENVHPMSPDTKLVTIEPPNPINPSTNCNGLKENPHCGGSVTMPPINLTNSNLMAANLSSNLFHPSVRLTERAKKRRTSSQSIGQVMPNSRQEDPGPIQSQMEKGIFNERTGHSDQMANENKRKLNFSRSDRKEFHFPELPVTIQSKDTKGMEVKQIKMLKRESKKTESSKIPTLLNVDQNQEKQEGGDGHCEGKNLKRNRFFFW

[8] = target: T1, Mitogen-activated protein kinase 8; experiment: Inhibition of JNK1 (unknown origin) by kinase profiling assay
[9] = target: TRAF2 and NCK-interacting protein kinase (Homo sapiens, UniProt Q9UKE5); experiment: Inhibition of TNIK (unknown origin) by kinase profiling assay
Sequence of TRAF2 and NCK-interacting protein kinase (Q9UKE5 whole entry): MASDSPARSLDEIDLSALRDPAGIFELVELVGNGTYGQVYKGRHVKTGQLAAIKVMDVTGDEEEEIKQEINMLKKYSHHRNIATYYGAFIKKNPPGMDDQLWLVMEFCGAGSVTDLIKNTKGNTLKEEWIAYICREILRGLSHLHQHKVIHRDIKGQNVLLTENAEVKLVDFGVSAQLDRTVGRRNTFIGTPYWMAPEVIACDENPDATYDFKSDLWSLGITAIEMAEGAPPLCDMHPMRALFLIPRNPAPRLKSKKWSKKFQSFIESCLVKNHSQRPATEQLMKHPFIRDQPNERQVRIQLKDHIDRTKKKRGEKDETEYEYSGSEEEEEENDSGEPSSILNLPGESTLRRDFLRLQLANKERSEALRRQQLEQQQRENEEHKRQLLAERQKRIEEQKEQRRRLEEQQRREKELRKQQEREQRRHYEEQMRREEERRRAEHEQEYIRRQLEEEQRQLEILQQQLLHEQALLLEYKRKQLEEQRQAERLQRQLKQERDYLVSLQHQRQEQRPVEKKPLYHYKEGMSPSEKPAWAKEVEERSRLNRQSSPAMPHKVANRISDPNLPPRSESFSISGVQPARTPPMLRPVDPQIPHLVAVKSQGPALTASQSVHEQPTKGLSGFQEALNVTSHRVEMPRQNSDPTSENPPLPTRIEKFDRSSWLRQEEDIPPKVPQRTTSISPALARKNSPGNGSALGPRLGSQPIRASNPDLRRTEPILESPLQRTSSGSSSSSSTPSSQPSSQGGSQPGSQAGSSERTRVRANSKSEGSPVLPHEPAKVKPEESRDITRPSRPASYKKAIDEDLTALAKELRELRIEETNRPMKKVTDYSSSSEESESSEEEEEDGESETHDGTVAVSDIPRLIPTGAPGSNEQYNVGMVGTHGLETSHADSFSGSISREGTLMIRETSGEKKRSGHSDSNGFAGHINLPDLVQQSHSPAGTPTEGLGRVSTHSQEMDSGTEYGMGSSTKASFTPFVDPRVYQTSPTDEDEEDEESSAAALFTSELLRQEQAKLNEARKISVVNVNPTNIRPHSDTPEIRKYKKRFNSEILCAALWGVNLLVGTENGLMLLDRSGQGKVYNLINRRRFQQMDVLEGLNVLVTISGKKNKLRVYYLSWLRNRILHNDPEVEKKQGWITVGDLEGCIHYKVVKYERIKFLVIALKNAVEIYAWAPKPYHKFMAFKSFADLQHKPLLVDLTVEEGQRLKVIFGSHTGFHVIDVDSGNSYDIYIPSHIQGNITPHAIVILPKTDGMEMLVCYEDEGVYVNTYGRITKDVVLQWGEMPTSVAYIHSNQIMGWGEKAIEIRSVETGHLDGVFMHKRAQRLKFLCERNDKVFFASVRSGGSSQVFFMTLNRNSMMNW

[10] = target: Voltage-gated inwardly rectifying potassium channel KCNH2 (Homo sapiens, UniProt Q12809)
[11] = target: Mitogen-activated protein kinase 10 (Homo sapiens, UniProt P53779)
Sequence of Mitogen-activated protein kinase 10 (P53779 whole entry): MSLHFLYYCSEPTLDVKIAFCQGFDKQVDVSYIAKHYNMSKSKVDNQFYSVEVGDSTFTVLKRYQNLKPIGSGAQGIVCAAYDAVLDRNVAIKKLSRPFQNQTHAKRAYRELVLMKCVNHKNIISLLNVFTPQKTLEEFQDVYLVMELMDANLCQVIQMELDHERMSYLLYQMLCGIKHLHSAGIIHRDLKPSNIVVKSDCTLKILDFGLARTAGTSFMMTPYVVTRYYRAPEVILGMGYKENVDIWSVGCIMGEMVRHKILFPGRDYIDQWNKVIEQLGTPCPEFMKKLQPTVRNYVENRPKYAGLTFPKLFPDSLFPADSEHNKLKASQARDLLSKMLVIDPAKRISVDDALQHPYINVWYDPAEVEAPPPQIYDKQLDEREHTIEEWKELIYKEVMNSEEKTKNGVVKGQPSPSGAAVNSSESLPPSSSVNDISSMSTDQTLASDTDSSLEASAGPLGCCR

T1 sequence (P45983 whole entry): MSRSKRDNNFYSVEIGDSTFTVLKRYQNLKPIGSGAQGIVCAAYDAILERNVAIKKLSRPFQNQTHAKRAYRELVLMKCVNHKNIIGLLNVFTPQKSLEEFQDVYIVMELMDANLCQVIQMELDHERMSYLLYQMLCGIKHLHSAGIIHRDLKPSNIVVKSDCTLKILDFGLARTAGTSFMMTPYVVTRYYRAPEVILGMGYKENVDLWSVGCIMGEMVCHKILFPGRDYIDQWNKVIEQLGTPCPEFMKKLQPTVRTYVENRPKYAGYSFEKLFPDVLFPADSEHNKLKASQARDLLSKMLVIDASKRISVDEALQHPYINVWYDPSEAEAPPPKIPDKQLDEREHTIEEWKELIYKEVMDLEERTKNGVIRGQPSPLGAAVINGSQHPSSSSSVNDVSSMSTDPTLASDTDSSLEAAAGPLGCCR
Sequence of Mitogen-activated protein kinase 9 (P45984 whole entry): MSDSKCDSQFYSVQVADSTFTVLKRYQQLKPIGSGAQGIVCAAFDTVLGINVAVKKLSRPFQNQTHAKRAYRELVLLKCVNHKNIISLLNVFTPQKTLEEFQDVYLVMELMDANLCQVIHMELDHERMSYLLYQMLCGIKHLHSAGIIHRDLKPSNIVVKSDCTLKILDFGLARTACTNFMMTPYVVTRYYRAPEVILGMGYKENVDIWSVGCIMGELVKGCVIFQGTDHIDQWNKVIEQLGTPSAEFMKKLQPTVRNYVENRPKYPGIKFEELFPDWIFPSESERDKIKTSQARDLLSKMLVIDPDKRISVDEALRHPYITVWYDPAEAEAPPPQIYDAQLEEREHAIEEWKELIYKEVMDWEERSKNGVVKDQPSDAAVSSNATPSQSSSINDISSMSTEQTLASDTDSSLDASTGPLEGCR

O=C1c2ccccc2C2=NNC3=CC=CC1C32 (stereo unspecified)
IC50 [1]: 0.0423 µM

O=C(c1cccc(CNc2n[nH]c3cccc(Cl)c23)c1)N1CCN(C(=O)c2ccc(Cl)cc2Cl)CC1
IC50 [2]: 9.27 µM
IC50 [3]: > 10 µM
IC50 [4]: 0.624 µM
IC50 [5]: > 10 µM
IC50 [1]: > 10 µM
IC50 [6]: 0.423 µM
IC50 [7]: 0.669 µM
IC50 [8]: > 10 µM
IC50 [9]: 0.367 µM
IC50 [10]: > 30 µM

Cc1cccc(Cl)c1C(=O)N1CCN(C(=O)c2ccc(CNc3n[nH]c4ccccc34)cc2)CC1
IC50 [1]: > 10 µM

O=C(NCCc1ccccc1)c1ccc(CNc2n[nH]c3ccccc23)cc1
IC50 [1]: > 10 µM
IC50 [11]: > 10 µM

O=C(c1cccc(CNc2n[nH]c3ccccc23)c1)N1CCN(C(=O)c2ccc(Cl)cc2Cl)CC1
IC50 [1]: 7.59 µM
IC50 [11]: 4.03 µM

O=C(c1ccc(CNc2n[nH]c3ccccc23)cc1)N1CCN(C(=O)c2c(Cl)cccc2C(F)(F)F)CC1
IC50 [1]: 7.66 µM
IC50 [11]: 0.253 µM

O=C(c1cccc(CNc2n[nH]c3ccccc23)c1)N1CCN(C(=O)c2c(F)cccc2Cl)CC1
IC50 [1]: 7.82 µM
IC50 [11]: 4.3 µM

COc1ccc(C(=O)N2CCN(C(=O)c3ccc(CNc4n[nH]c5ccccc45)cc3)CC2)c(Cl)c1
IC50 [1]: > 10 µM

O=C(c1ccc(CNc2n[nH]c3ccccc23)cc1)N1CCN(C(=O)c2cc(Cl)ccc2Cl)CC1
IC50 [1]: 7.61 µM
IC50 [11]: 0.205 µM

COc1ccc(C(=O)N2CCN(C(=O)c3ccc(CNc4n[nH]c5ccccc45)cc3)CC2)cc1
IC50 [1]: 7.7 µM
IC50 [11]: 0.615 µM

O=C(c1cccc(CNc2n[nH]c3cccc(F)c23)c1)N1CCN(C(=O)c2ccc(Cl)cc2Cl)CC1
IC50 [1]: 8 µM
IC50 [11]: 0.189 µM

O=C(NN1CCCCC1)c1ccc(CNc2n[nH]c3ccccc23)cc1
IC50 [1]: 9.06 µM

Cc1ccc(Cl)c(C(=O)N2CCN(C(=O)c3ccc(CNc4n[nH]c5ccccc45)cc3)CC2)c1
IC50 [1]: > 10 µM
IC50 [11]: 0.588 µM

O=C(Nc1cc(C(F)(F)F)cc(C(F)(F)F)c1)N1CCN(C(=O)c2ccc(CNc3n[nH]c4ccccc34)cc2)CC1
IC50 [1]: > 10 µM
IC50 [11]: 8.03 µM

O=C(c1cccc(CNc2n[nH]c3cc(Cl)ccc23)c1)N1CCN(C(=O)c2ccc(Cl)cc2Cl)CC1
IC50 [11]: 0.239 µM

O=C(c1ccc(Cl)cc1)N1CCN(C(=O)c2ccc(CNc3n[nH]c4ccccc34)cc2)CC1
IC50 [1]: 8.82 µM
IC50 [11]: 0.305 µM

Cc1cc(NC(=O)c2ccc(CNc3n[nH]c4ccccc34)cc2)ccc1Cl
IC50 [1]: > 10 µM
IC50 [11]: > 10 µM

O=C(c1cccc(CNc2n[nH]c3c(Cl)cc([N+](=O)[O-])cc23)c1)N1CCN(C(=O)c2ccc(Cl)cc2Cl)CC1
IC50 [1]: > 10 µM
IC50 [11]: > 10 µM

Cn1nc(NCc2cccc(C(=O)N3CCN(C(=O)c4ccc(Cl)cc4Cl)CC3)c2)c2ccccc21
IC50 [1]: > 10 µM
IC50 [11]: > 10 µM

O=C(c1ccc(CNc2n[nH]c3ccccc23)cc1)N1CCN(C(=O)c2cccc(C(F)(F)F)c2)CC1
IC50 [1]: 7.8 µM
IC50 [11]: 0.927 µM

O=C(c1ccc(CNc2n[nH]c3ccccc23)cc1)N1CCN(C(=O)c2c(Cl)cccc2Cl)CC1
IC50 [11]: 0.279 µM

O=C(Nc1ccccc1)c1ccc(CNc2n[nH]c3ccccc23)cc1
IC50 [1]: > 10 µM
IC50 [11]: > 10 µM

COc1ccc(NC(=O)c2ccc(CNc3n[nH]c4ccccc34)cc2)cc1
IC50 [1]: > 10 µM
IC50 [11]: > 10 µM

O=C(c1ccc(CNc2n[nH]c3ccccc23)cc1)N1CCN(C(=O)c2ccc(Br)cc2Br)CC1
IC50 [1]: 8.85 µM
IC50 [11]: 0.248 µM

O=C(c1ccc(CNc2n[nH]c3ccccc23)cc1)N1CCN(C(=O)c2ccc(OC(F)(F)F)cc2)CC1
IC50 [1]: 7.68 µM
IC50 [11]: 0.325 µM

Cc1cccc2c(NCc3cccc(C(=O)N4CCN(C(=O)c5ccc(Cl)cc5Cl)CC4)c3)n[nH]c12
IC50 [1]: > 10 µM
IC50 [11]: > 10 µM

O=C(c1ccc(CNc2n[nH]c3ccccc23)cc1)N1CCCC1
IC50 [1]: 8.07 µM
IC50 [11]: 7.51 µM

O=C(c1ccc(CNc2n[nH]c3ccccc23)cc1)N1CCN(C(=O)c2cc(C(F)(F)F)ccc2Cl)CC1
IC50 [1]: 9.87 µM
IC50 [11]: 0.282 µM

O=C(Nc1ccc(Cl)cc1)c1ccc(CNc2n[nH]c3ccccc23)cc1
IC50 [1]: > 10 µM
IC50 [11]: > 10 µM

O=C(c1ccc(CNc2n[nH]c3ccccc23)cc1)N1CCN(C(=O)c2ccccc2I)CC1
IC50 [1]: 7.69 µM
IC50 [11]: 0.399 µM

O=C(c1ccc(CNc2n[nH]c3ccccc23)cc1)N1CCN(C(=O)c2ccc(F)cc2Cl)CC1
IC50 [1]: 9.07 µM
IC50 [11]: 0.647 µM

O=C(c1cccc(CNc2n[nH]c3ccccc23)c1)N1CCN(C(=O)c2cc(C(F)(F)F)ccc2F)CC1
IC50 [11]: 4.46 µM

O=C(Nc1ccccc1Cl)N1CCN(C(=O)c2ccc(CNc3n[nH]c4ccccc34)cc2)CC1
IC50 [1]: 7.79 µM
IC50 [11]: 0.619 µM

O=C(c1ccc(CNc2n[nH]c3ccccc23)cc1)N1CCN(C(=O)c2ccccc2OC(F)(F)F)CC1
IC50 [1]: 8.28 µM
IC50 [11]: 0.394 µM

O=C(c1ccc(CNc2n[nH]c3ccccc23)cc1)N1CCN(C(=O)c2cccc(F)c2Cl)CC1
IC50 [1]: 8.91 µM
IC50 [11]: 0.384 µM
